Data as given in the supplement of paper PMC4862054.

Assays:
[1] = test system: HDQ-P1; test: normalised response (% of control), CellTiter-Glo; higher = more viable cells (100 = DMSO, 0 = benzethonium chloride kill control); conditions: incubation time: 72 h
Method in brief: (§1)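 Each value is the plate-normalised signal at one concentration of the series. Breast cancer cell lines (20 µl suspension) were incubated 72 h in 384-well plates with compound at 5 concentrations in 10-fold steps over a compound-specific 10,000-fold range. CellTox Green and then CellTiter-Glo were read, and each plate was scaled to 0.1 % DMSO (100) and a positive kill control (0).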

[2] = test system: MDA-MB-436; test: as above; conditions: incubation time: 72 h
Method in brief: as §1

[3] = test system: HCC1937; test: as above; conditions: incubation time: 72 h
Method in brief: as §1

[4] = test system: CAL-51; test: as above; conditions: incubation time: 72 h
Method in brief: as §1

[5] = test system: MDA-MB-453; test: as above; conditions: incubation time: 72 h
Method in brief: as §1

[6] = test system: MFM-223; test: as above; conditions: incubation time: 72 h
Method in brief: as §1

[7] = test system: MDA-MB-468; test: as above; conditions: incubation time: 72 h
Method in brief: as §1

[8] = test system: BT-474; test: as above; conditions: incubation time: 72 h
Method in brief: as §1

[9] = test system: BT-549; test: as above; conditions: incubation time: 72 h
Method in brief: as §1

[10] = test system: MCF-10A; test: as above; conditions: incubation time: 72 h
Method in brief: as §1

[11] = test system: HCC1143; test: as above; conditions: incubation time: 72 h
Method in brief: as §1

[12] = test system: DU-4475; test: as above; conditions: incubation time: 72 h
Method in brief: as §1

[13] = test system: Hs578T; test: as above; conditions: incubation time: 72 h
Method in brief: as §1

[14] = test system: CAL-148; test: as above; conditions: incubation time: 72 h
Method in brief: as §1

[15] = test system: SK-BR-3; test: as above; conditions: incubation time: 72 h
Method in brief: as §1

[16] = test system: HCC1937; conditions: 72 h
Method in brief: (§2)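 The reported EC50 was fitted from percent-inhibition dose-response curves and censored at the highest concentration. Breast cancer cell lines (20 µl suspension) were added to 384-well plates containing compound in 5 µl medium and incubated 72 h, and viability was read with 2.5 µl CellTiter-Blue over 2 h at 37 °C at 560/590 nm. Each plate was normalised to vehicle and a positive kill control and checked by Z'-factor, and rows with zero drug sensitivity score were dropped.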

[17] = test system: MDA-MB-436; test: normalised viability (% of control), CellTiter-Blue; higher = more viable cells (about 100 = DMSO control); conditions: incubation time: 72 h
Method in brief: (§3)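 Each value is normalised viability at a single listed concentration of the series. Breast cancer cell lines in 384-well plates were incubated 72 h with compound and read by CellTiter-Blue fluorescence at 560/590 nm, with vehicle set to 100 and a positive kill control to 0 on every plate.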

[18] = test system: MDA-MB-453; test: as above; conditions: incubation time: 72 h
Method in brief: as §3

[19] = test system: CAL-85-1; test: as above; conditions: incubation time: 72 h
Method in brief: as §3

[20] = test system: BT-549; test: as above; conditions: incubation time: 72 h
Method in brief: as §3

[21] = test system: DU-4475; test: as above; conditions: incubation time: 72 h
Method in brief: as §3

[22] = test system: Hs578T; test: as above; conditions: incubation time: 72 h
Method in brief: as §3

[23] = test system: CAL-148; test: as above; conditions: incubation time: 72 h
Method in brief: as §3

[24] = test system: HCC1599; test: as above; conditions: incubation time: 72 h
Method in brief: as §3

[25] = test system: MDA-MB-231; conditions: 72 h
Method in brief: as §2

In the case of N[C@@H](CSC(c1ccccc1)(c1ccccc1)c1ccccc1)C(=O)O [S-trityl-L-cysteine] (4000 nM), the normalised response [1] is reported as 99.5%, the normalised response [2] is reported as 100% and the normalised response [3] is reported as 97.3%. The normalised response [4] was 87.3%, the normalised response [5] was 103% and the normalised response [6] was 101%. For the same compound, the normalised response [7] was 105%, the normalised response [8] was 102% and the normalised response [9] was 98.6%. It also gave a normalised response [10] of 96.3%, a normalised response [11] of 94% and a normalised response [12] of 91.1%. It also gave a normalised response [13] of 99.2%, a normalised response [14] of 97.6% and a normalised response [15] of 94.3%.
In the case of CN(N=O)C(=O)N[C@@H](C=O)[C@@H](O)[C@H](O)[C@H](O)CO [Streptozocin], the “EC50, CellTiter-Blue viability” value [16] is reported as 0.0853 µM, the normalised viability ([17]; 10 nM) is reported as 110% and the normalised viability ([17]; 1000 nM) is reported as 88.1%. For the same compound, the normalised viability ([17]; 10000 nM) was 90.6%, the normalised viability ([18]; 3 nM) was 116% and the normalised viability ([18]; 30 nM) was 89.4%. The normalised viability ([18]; 100 nM) was 93%, the normalised viability ([19]; 3 nM) was 95.7% and the normalised viability ([19]; 30 nM) was 92.1%. The normalised viability ([19]; 100 nM) was 95.4%, the normalised viability ([20]; 10 nM) was 93% and the normalised viability ([20]; 1000 nM) was 103%. For the same compound, the normalised viability ([20]; 10000 nM) was 83.7%, the normalised viability ([21]; 3 nM) was 101% and the normalised viability ([21]; 30 nM) was 96.5%. The normalised viability ([21]; 100 nM) was 103%, the normalised viability ([22]; 10 nM) was 110% and the normalised viability ([22]; 1000 nM) was 103%. The normalised viability ([22]; 10000 nM) was 101%, the normalised viability ([23]; 3 nM) was 98.6% and the normalised viability ([23]; 30 nM) was 97.3%. For the same compound, the normalised viability ([23]; 100 nM) was 99.3%, the normalised viability ([24]; 10 nM) was 104% and the normalised viability ([24]; 1000 nM) was 85.9%. The normalised viability ([24]; 10000 nM) was 113%.
CN(N=O)C(=O)N[C@@H](C=O)[C@@H](O)[C@H](O)[C@H](O)CO [Streptozocin] (1000 nM) was tested, and the normalised response [1] was 107%, the normalised response [2] was 98.3% and the normalised response [3] was 108%. The normalised response [4] was 107%, the normalised response [5] was 109% and the normalised response [6] was 103%. For the same compound, the normalised response [7] was 104%, the normalised response [8] was 107% and the normalised response [9] was 98.2%. The normalised response [10] was 109%, the normalised response [11] was 112% and the normalised response [12] was 100%. For the same compound, the normalised response [13] was 109%, the normalised response [14] was 100% and the normalised response [15] was 100%.
For O=C1CCC(N2C(=O)c3ccccc3C2=O)C(=O)N1 (stereo not given) [Thalidomide] (1000 nM), the normalised response [1] was 101%, the normalised response [2] was 99.1% and the normalised response [3] was 98%. It also gave a normalised response [4] of 120%, a normalised response [5] of 102% and a normalised response [6] of 93.8%. For the same compound, the normalised response [7] was 106%, the normalised response [8] was 102% and the normalised response [9] was 96.3%. It also gave a normalised response [10] of 102%, a normalised response [11] of 95.9% and a normalised response [12] of 100%. It also gave a normalised response [13] of 107%, a normalised response [14] of 96% and a normalised response [15] of 99.4%.
With CN[C@@H]1C[C@H]2O[C@@](C)([C@@H]1OC)n1c3ccccc3c3c4c(c5c6ccccc6n2c5c31)C(=O)N[C@H]4O [UCN-01] (1000 nM) the normalised response [1] was 18.8%, the normalised response [2] was 27.5% and the normalised response [3] was 32%. It also gave a normalised response [4] of 11.8%, a normalised response [5] of 34% and a normalised response [6] of 30.2%. For the same compound, the normalised response [7] was 5.24%, the normalised response [8] was 12.4% and the normalised response [9] was 17.8%. The normalised response [10] was 1.2%, the normalised response [11] was 17.3% and the normalised response [12] was 7.33%. For the same compound, the normalised response [13] was 11.7%, the normalised response [14] was 75.2% and the normalised response [15] was 22.3%.
Clc1ccc(Nc2nnc(Cc3ccncc3)c3ccccc23)cc1 [Vatalanib] (1000 nM) gave a normalised response [1] of 109%, a normalised response [2] of 106% and a normalised response [3] of 103%. The normalised response [4] was 94.4%, the normalised response [5] was 95.4% and the normalised response [6] was 104%. The normalised response [7] was 103%, the normalised response [8] was 95.2% and the normalised response [9] was 100%. For the same compound, the normalised response [10] was 103%, the normalised response [11] was 97% and the normalised response [12] was 106%. The normalised response [13] was 100%, the normalised response [14] was 98.7% and the normalised response [15] was 104%.
CCC1=C[C@@H]2CN(C1)Cc1c([nH]c3ccccc13)[C@@](C(=O)OC)(c1cc3c(cc1OC)N(C)[C@H]1[C@@](O)(C(=O)OC)[C@H](OC(C)=O)[C@]4(CC)C=CCN5CC[C@]31[C@@H]54)C2 [Vinorelbine] (1000 nM) was tested, and the normalised response [1] was 76.2%, the normalised response [2] was 24.7% and the normalised response [3] was 73.8%. The normalised response [4] was 26.7%, the normalised response [5] was 56.1% and the normalised response [6] was 39.3%. For the same compound, the normalised response [7] was 30.3%, the normalised response [8] was 55.7% and the normalised response [9] was 41.8%. The normalised response [10] was 63%, the normalised response [11] was 56.9% and the normalised response [12] was 69.9%. The normalised response [13] was 35.5%, the normalised response [14] was 43.2% and the normalised response [15] was 16.9%.
For Oc1nc(-c2ccc(C(F)(F)F)cc2)nc2c1CSCC2 [XAV-939], the “EC50, CellTiter-Blue viability” value [25] was 2.59 µM, the normalised viability ([17]; 10 nM) was 122% and the normalised viability ([17]; 1000 nM) was 116%. The normalised viability ([17]; 10000 nM) was 113%, the normalised viability ([18]; 3 nM) was 104% and the normalised viability ([18]; 30 nM) was 94.2%. It also gave a normalised viability ([18]; 100 nM) of 105%, a normalised viability ([19]; 3 nM) of 96% and a normalised viability ([19]; 30 nM) of 92.8%. The normalised viability ([19]; 100 nM) was 94.7%, the normalised viability ([20]; 10 nM) was 91.3% and the normalised viability ([20]; 1000 nM) was 94.5%. It also gave a normalised viability ([20]; 10000 nM) of 101%, a normalised viability ([21]; 3 nM) of 117% and a normalised viability ([21]; 30 nM) of 101%. The normalised viability ([21]; 100 nM) was 121%, the normalised viability ([22]; 10 nM) was 90.8% and the normalised viability ([22]; 1000 nM) was 82.3%. The normalised viability ([22]; 10000 nM) was 85.5%, the normalised viability ([23]; 3 nM) was 89.3% and the normalised viability ([23]; 30 nM) was 90.4%. The normalised viability ([23]; 100 nM) was 94.3%, the normalised viability ([24]; 10 nM) was 118% and the normalised viability ([24]; 1000 nM) was 95%. The normalised viability ([24]; 10000 nM) was 115%.
Compound Oc1nc(-c2ccc(C(F)(F)F)cc2)nc2c1CSCC2 [XAV-939] (1000 nM) has a normalised response [1] of 101%, a normalised response [2] of 96.7% and a normalised response [3] of 91.1%. It also gave a normalised response [4] of 89.3%, a normalised response [5] of 91.4% and a normalised response [6] of 96.1%. The normalised response [7] was 82%, the normalised response [8] was 79.8% and the normalised response [9] was 91.8%. The normalised response [10] was 88.8%, the normalised response [11] was 88.8% and the normalised response [12] was 92.8%. It also gave a normalised response [13] of 92.3%, a normalised response [14] of 89.8% and a normalised response [15] of 84.4%.
